Experimental data: patent US4576942A, “Anti-allergic and anti-inflammatory bi- and tri- cyclo-1,4-thiazine derivatives, composition, and method of use therefor” (USV Pharmaceutical Corp., priority 1984, dated 1986)
Where two headings read alike, the source gives them in different places.

Tests used:
5-lipoxygenase pathway = assay: Inhibitors of the Lipoxygenase Pathway (LOX), [14C]-5-HETE formation in rat neutrophils; format: cell-based; parameters: key to LOX degree of activity: I: inactive; L: low activity; M: moderate activity; H: high activity; details: for LOX degree of activity: class symbol in the LOX I50 column; for IC50: Neutrophil
Method: The following protocol describes an assay to detect inhibitors of the lipoxygenase pathway. Such inhibitors are believed to be capable of modulating the biosynthesis of the leukotrienes, a property believed to be useful in treating asthma and inflammatory disease states.
A suspension of rat neutrophils in buffer is incubated for 3 minutes at 30° C. with [^14 C]-arachidonic acid (AA) and Calcium Ionophore A23187. Citric Acid (2M) is used to quench the reaction. Following the addition of a trace amount of (^3 H)-5-HETE together with an excess of unlabeled 5-HETE to each tube, the mixture is extracted with chloroform/methanol. The organic layer is washed with dilute acid and an aliquot is transferred to glass tubes and dried. The residue is dissolved in a small volume of chloroform and an aliquot is spotted on silica gel TLC sheets, which are developed with an ethyl acetate/isoctane/water/acetic acid solvent system. The 5-HETE spots are visualized with iodine, cut out and placed in scintillation vials for counting. After adjusting for the extraction efficiency, the amount (pmole) of [^14 C]-5-HETE in each of the tubes is quantitated. The net pmoles of 5-HETE are obtained by substracting the pmoles of 5-HETE in the tubes containing buffer alone (blank) for the pmoles of 5-HETE in the tubes containing […]. The ability of the test compounds to modulate the activity of this enzyme is determined by a decrease or increase in the net amount of 5-HETE produced.

[1] = test system: leukotriene C4-induced contraction of guinea pig peripheral strips; assay: SRS-A (slow-reacting substance of anaphylaxis) antagonists, leukotriene C4-induced contraction of guinea pig peripheral lung strips; format: cell-based; parameters: key to SRS-A degree of inhibitory activity: I: inactive; L: low activity; M: moderate activity; H: high activity; details: for SRS-A degree of inhibitory activity: 0.2 nM leukotriene C4, class symbol in the SRS-A I50 column; for IC50: Cavia porcellus, 0.2 nM leukotriene C4, 37° C., read-out: SRS-A I50 (concentration required for 50% inhibition of 0.2 nM leukotriene C4-induced contraction)
Method: Leukotrienes, the products of the 5-lipoxygenase pathway of arachidonic acid metabolism, are potent contractile agents with a variety of smooth muscle preparations. […] The following protocol describes an in vitro assay used to test compounds which specifically antagonize the actions of leukotrienes.
Peripheral strips of guinea pig lungs are prepared and hung in tissue baths (Metro # ME-5505, 10 ml) according to the published procedure (Proc. Nat'l Acad. Sci, U.S.A. Volume 77, pp. 4354-4358, 1980). The strips are thoroughly rinsed in Assay Buffer and then connected with surgical silk thread to the support rods from the tissue baths. The rods are adjusted in the baths and the strips connected to the pressure transducers (Grass FT 103 or Gould UC-3). The tissue baths are aerated with 95% oxygen-5% carbon dioxide and maintained at 37° C. The Assay Buffer has been made as follows: For each liter of buffer the following are added to approximately 800 ml of water distilled in glass--6.87 g. NaCl, 0.4 g. KCl, 2.1 g. NaHCO3, 0.14 g, NaH2 PO4.H2 O, 0.21 g. MgSO4.7H2 O, and 2.0 g. D-glucose. Then a solution of 0.368 g. CaCl2.2H2 O in 100 ml glass-distilled water is slowly added to the buffer. Sufficient water is added to adjust the volume to one liter, and the solution is aerated with 95% oxygen-5% carbon dioxide. Usually 10 liters of buffer are used for an experiment with 4 tissues.
After the tissues have been repeatedly washed and allowed to equilibrate in the tissue bath, they are challenged with 1 uM histamine. After maximum contractions have been obtained, the tissues are washed, and allowed to relax back to baseline tension. This histamine challenge procedure is repeated at least 1 to 2 more times to obtain a repeatable control response. The average response to 1 uM histamine for each tissue is used to normalize all other challenges.
Responses of each tissue to a pre-determined concentration of leukotriene are then obtained. Usually test compounds are examined initially at 30 uM on resting tension of the tissues without any added agonist or antagonist to determine if the compound has any possible intrinsic activity. The tissues are washed, and the test compound is added again. Leukotriene is added after the desired pre-incubation time. The intrinsic activity of the compounds, and their effect on leukotriene-induced contractions are then recorded.
The concentration required for 50% inhibition of 0.2 nM leukotriene C4 -induced contraction of guinea pig peripheral strips or degree of inhibitory activity for representative compounds of the present invention is shown in Table I denoted by SRS-A.

[2] = test system: Human PMN (5-lipoxygenase pathway); assay: LOX, Human PMN; format: cell-based; parameters: key to LOX degree of activity, Human PMN: I: inactive; L: low activity; M: moderate activity; H: high activity
[3] = test system: SRS-A (slow reacting substances of anaphylaxis), anaphylactic bronchoconstriction in guinea pigs; assay: in vivo modulators of SRS-A: Bronchial Anaphylaxis in Guinea Pigs with Enhanced Leukotrines (BAGEL); parameters: species or system guinea pig; key: I: inactive; L: low activity; M: moderate activity; H: high activity; details: 15 min before ovalbumin challenge
Method: Representative compounds of the present invention were also tested in the following in vivo model.
This test, known as the Bronchial Anaphylaxis in Guinea Pigs with Enhanced Leukotrines (BAGEL), is based on the procedure published in Agents and Actions, Vol. 11, pp. 396-401, 1981, and is performed with guinea pigs actively immunized (14 days) with ovalbumin (2.7 mg/kg, i.p.) and B.pertussis (5×10^9 organisms) as an adjuvant. Prior to challenge with antigen (ovalbumin), the animals are anesthetized and prepared for monitoring pulmonary dynamics by whole body plethysmography. They are treated with an H1 antihistamine (methapyrilene, 2 mg/kg, i.v.) and cyclooxygenase inhibitor (indomethacin; 20 mg/kg, i.p.) in order to enhance the SRS-A component of anaphylactic bronchoconstriction. Bronchoconstriction is quantified as the maximum increase in airway resistance following antigen challenge. The drug is administered either i.p. 10 minutes before challenge, or i.d. 15 minutes before challenge.

[4] = arachidonic acid + Ca ionophore A23187, 30° C., read-out: LOX I50 (concentration required for 50% inhibition of the 5-lipoxygenase pathway)

Compound | IC50 (5-lipoxygenase pathway; [4]) | IC50 [1] | LOX degree of activity (5-lipoxygenase pathway) | SRS-A degree of inhibitory activity [1] | other results
O=C(C=C1CSc2ccccc2N1)Nc1ccccc1Cl | – | – | M | – | –
CCOC(=O)C=C(C(=O)OCC)C(C(=O)OCC)=C1CSc2ccccc2N1 | – | – | – | I | IC50 (5-lipoxygenase pathway; cell prints 3μ .M, read-out: LOX I50, unit printed in the cell): 3000 nM; LOX degree of activity, Human PMN ([2]; Human PMN, 135 μM): L; BAGEL activity ([3]; 30 mg/kg i.d.): H
CCOC(=O)C=C1CSc2ccccc2N1 | – | – | I | M | –
CCOC(=O)C(Cl)=C1CSc2ccccc2N1 | 1700 nM | – | – | M | BAGEL activity ([3]; 200 mg/kg i.d.): L

Second part, led by results:

IC50 (5-lipoxygenase pathway; [4]) | IC50 [1] | Compound | LOX degree of activity (5-lipoxygenase pathway) | SRS-A degree of inhibitory activity [1] | other results
12000 nM | – | CCOC(=O)c1c2csc3ccccc3n-2c(=O)c1O | – | I | –
1200 nM | 20 µM | CCOC(=O)C(Cl)=C1CSc2ncccc2N1 | – | – | IC50 ([2]; Homo sapiens, read-out: LOX I50, Human PMN): 1000 nM; BAGEL activity ([3]; 200 mg/kg i.d.): M-H
1600 nM | 18 µM | O=C(C=C1CSc2ccccc2N1)Nc1ccccc1 | – | – | –
– | 25 µM | N#CC(C(N)=O)=C1CSc2ccccc2N1 | I | – | –
